The source of these data is a melting point compilation (Tetko et al.; mined from patent text by program, amines drawn as free bases though some values may be those of a salt).

For orientation: melting point means the temperature of the solid-liquid transition.

Each structure is given as a SMILES string. Bounds are passed on as bounds.

Molecule `COC(=O)c1ccc(Sc2ccc(OCCCCl)cc2)cc1` gave a melting point of 65 to 67 °C.

Molecule `CCCCc1c(C=O)ccc2cc(OC)ccc12` had a melting point of 56 to 57 °C.

With `CC(CCl)CCCC(C)C1CC=C2C3=C(CCC21C)C1(C)CCC(O)C(C)(C)C1CC3` (stereo unspecified), the melting point was in the range of 145 to 146 °C.

In the case of `CCCOc1ccc(S)cc1C(N)=O`, the melting point was in the range of 108 to 111 °C.

With `Cc1cc(SC(C)C)c(NC(=O)CN2CCN(CCSc3nc4ccccc4[nH]3)CC2)c(SC(C)C)n1`, the melting point was 186 to 188 °C.

For `CC1COc2cc(Oc3ccc(NC(=O)N(C)C)cn3)ccc21` (stereo unspecified), the melting point was 153 to 154 °C.

In the case of `CCCc1nc2c(N)nc3cc(OCc4ccccc4)ccc3c2s1`, the melting point lay in the range of 175 to 178 °C.

As for `CCOC(=O)C(=O)CC(=O)c1cn(Cc2ccccc2OC)c2ccccc2c1=O`, the melting point lay in the range of 154 to 156 °C.

Molecule `CC(=O)Oc1c(C)ccc2c1NC(O)C1CCCN1C2=O` (stereo unspecified) registered a melting point of 142 to 145 °C.

For `Cc1ccc(-n2nc3c(cc2=O)CCCc2sc(CO)cc2-3)cc1`, the melting point was in the range of 158 to 159 °C.

The molecule `CC(C)(COc1ccc(O)c(C(N)=O)c1)[N+](=O)[O-]` displayed a melting point of 145 to 148 °C.

Turning to `S=C(NCn1nnc2ccccc21)NCn1nnc2ccccc21`, the melting point was 205 to 206 °C.

`CCOC(=O)c1c[nH]c2cc(C(=O)NCCc3ccc(Cl)cc3)nn2c1=O`: the melting point was > 300 °C.

Molecule `O=C(c1cc(O)c(O)c([N+](=O)[O-])c1)c1nc2ccccc2[nH]1` gave a melting point of 240 to 250 °C.

The molecule `CCCc1cccc2c(/C=C(\C)C(=O)O)cc(OC)c(OC(C)=O)c12` gave a melting point of 207 to 208 °C.

`CCOC(=O)/C(CC(=O)O)=C(\c1ccc(Cl)cc1)c1ccc(S(C)(=O)=O)cc1` registered a melting point of 40 to 42 °C.

The molecule `COC(=O)c1ccc(OCC2CCCCC2)cc1` yielded a melting point of 62 to 63 °C.

Turning to `Oc1c(C2CCCC2)cc(CSCc2cc(C3CCCC3)c(O)c(C3CCCC3)c2)cc1C1CCCC1`, the melting point lay in the range of 149 to 150 °C.

Turning to `O=S(=O)(O)c1cccc(Nc2ccnc3cc(Cl)ccc23)c1`, the melting point was > 300 °C.

Consider `Cc1ccc(S(=O)(=O)n2cncn2)cc1`, for which the melting point fell in the range of 105 to 107 °C.

For `COC(=O)c1cc(C=O)ccc1OCc1nc(-c2ccco2)oc1C`, the melting point lay in the range of 121 to 122 °C.

For `COc1ccc(N2C(=O)N(c3cccc(C(N)=O)c3)c3nc(Nc4cccc(CCN(C)C)c4)ncc3C2C)cc1` (stereo unspecified), the melting point fell in the range of 215 to 230 °C.

`Cc1nc(-c2ccccc2)nc(N2c3ccccc3CC2C(=O)N(C)c2ccc(Cl)cc2)c1C` (stereo unspecified) displayed a melting point of 236 to 238 °C.

With `C=CC1CC2=CC(=O)CCC2C2CCC3(CC)C(O)CCC3C12` (stereo unspecified), the melting point was 155 to 156 °C.

Molecule `COc1ccc(CCC(=O)Nc2nc3c(s2)CCN(CC=Cc2cccnc2)CC3)cc1` registered a melting point of 168 to 170 °C.

Molecule `O=S(=O)(c1ccccc1)n1ncc2c(OCCCl)cccc21` gave a melting point of 102 to 104 °C.

As to `COc1cccc(/C(=C/C=C/C(=O)Oc2ccc([N+](=O)[O-])cc2)c2ccccc2)c1`, the melting point lay in the range of 101 to 103 °C.

`O=S1(=O)c2cccc3cccc(c23)N1CCCN1CC=C(c2c[nH]c3ccccc23)CC1` returned a melting point of 226 °C.

Turning to `CCCNC(=Nc1ccc(Cl)cc1)Nc1ncccc1OCc1c(F)cccc1F`, the melting point was 99 to 100 °C.

For `Nc1c(Nc2ccon2)cnc2c1COCC2`, the melting point lay in the range of 209 to 211 °C.

The molecule `Cc1nc(-c2ccccc2)nc(-c2ccncc2)c1C` showed a melting point of 152 to 153 °C.

`COc1ccnc(CSc2nc3cscc3n2COC(C)=O)c1` returned a melting point of 111 to 113 °C.

Turning to `NC(=NO)c1ncn2c1[C@@H]1CCCN1C(=O)c1c(Br)cccc1-2`, the melting point is 235 to 237 °C.

For the molecule `BrCc1ccc2nc(-c3ccccc3)ccc2c1`, the melting point fell in the range of 126 to 127 °C.

`Cc1c(C(=O)Nc2ccc(OCC(C)(C)C)c(C#N)c2)cnn1CCO` came in with a melting point of 98 to 100 °C.

`C=CCN(CC=C)C(=O)C1CC(C)(C)NC(C)(C)C1` returned a melting point of 64 to 67 °C.

Turning to `CCCCNc1cc(-c2ccccc2)nc2nn(C)cc12`, the melting point was in the range of 160 to 161 °C.

In turn, `COc1ccc(C2=NN(Cn3nnc4ccccc43)C(=O)[C@H]3CCCC[C@@H]23)cc1OC` (relative stereo) came in with a melting point of 173 to 178 °C.

For `CCCCC1OC(=O)COC1=O` (stereo unspecified), the melting point was in the range of 37 to 39 °C.

For the molecule `CC(C)[C@H]1C(=O)OCN1C(=O)OC(C)(C)C`, the melting point lay within 43 to 45 °C.

With `CC(C)=CCN1c2ccccc2NC(=O)C1C` (racemic), the melting point is 92 to 93 °C.

The molecule `Nc1ccc(Cl)cc1C=Nc1ccccc1` showed a melting point of 74 °C.

In the case of `CCCCC1=NC2(CCCC2)C(=O)N1Cc1ccc(-c2ccccc2S(=O)(=O)Nc2onc(C)c2C)c(COCC)c1`, the melting point lay in the range of 74 to 80 °C.

Regarding `Cc1c(Br)sc2cc(C(=O)Cn3ccnc3)ccc12`, the melting point lay in the range of 184 to 186 °C.

`CC(=O)NCCn1c(O)nc2ccc(Cl)nc21`: the melting point was 200 to 220 °C.

As for `COc1ccc2c(c1)CC(C(=O)O)CC2` (stereo unspecified), the melting point is 119 to 122 °C.

In turn, `COC(=O)C(C)(C)OCc1cc2cc(C(F)(F)F)ccc2n1S(=O)(=O)c1cccc2nc(C)sc12` registered a melting point of 118 to 120 °C.

Molecule `Cc1cccc(NC(=O)C(=O)OCC#CI)c1` showed a melting point of 170 to 172 °C.

`C=CCSC1=C(O)CC(C)(C)CC1=O` displayed a melting point of 67.5 to 69.5 °C.

For the molecule `COc1ccc(-c2ccc(C(=N)NO)cc2)cc1-c1nc2cc(C(=N)NO)ccc2[nH]1`, the melting point was > 340 °C.

`C[C@]1(COc2ccc(N3CCN(Cc4ccc(OC(F)(F)F)cc4)CC3)cc2)Cn2cc([N+](=O)[O-])nc2O1` displayed a melting point of 214 to 217 °C.

In the case of `CCCc1nn(C)c2c(=O)[nH]c(Cc3ccc(S(=O)(=O)O)cc3)nc12`, the melting point is > 350 °C.

As for `COc1cc(/C=C/C=O)c([N+](=O)[O-])cc1OC`, the melting point lay in the range of 103 to 105 °C.

Regarding `Cc1c(CN2CCOCC2)sc2c(Br)c3ccccc3c(-c3cc(Br)c(O)c(Br)c3)c12`, the melting point is 237 to 240 °C.

`N#CCCOCc1cc(Cl)nc(Cl)c1` registered a melting point of 65.5 °C.

As to `CC(C)C1COC(c2ccccc2CO)=N1` (stereo unspecified), the melting point was in the range of 62 to 72 °C.

With `CN(C)CCCOc1ccc(-c2nnc(-c3ccc(-c4ccccc4)cc3)o2)cc1`, the melting point was in the range of 130 to 132 °C.

In turn, `COCCc1nc2c(N)nc3ccc(CCC(=O)N4CCOCC4)cc3c2n1CCCN1CCCC1=O` returned a melting point of 168 to 170 °C.

The molecule `CCOC(=O)c1cn(CC)c2nc(N3CCNCC3)ncc2c1=O` displayed a melting point of 155 °C.

Molecule `CCCCC(=O)c1c(-c2ccc3cc(OCC(=O)O)ccc3c2)oc2ccccc12` displayed a melting point of 130 to 132 °C.

Take `CSC1CC(=O)N1CC(=O)CCCCCCCc1ccccc1` (stereo unspecified): the melting point was in the range of 48 to 51 °C.

In turn, `CCCCNc1cc(-c2ccccc2)nc2onc(C)c12` showed a melting point of 126 to 127 °C.

In the case of `CCCC(=O)c1ccc(OCC(=O)OC)cc1`, the melting point is 78 to 82 °C.

Turning to `O=C1CCC(C(=O)N2CCC(Cc3ccccc3)CC2)N1` (stereo unspecified), the melting point lay in the range of 160 to 161 °C.

`CCCCOC(=O)c1ccc(N2CCN(C)CC2)cc1` displayed a melting point of 118 to 120 °C.

`O=Cc1cccc(Cl)n1` returned a melting point of 136 °C.
